The values that follow come from paper PMC7736581, “Activation of the IRE1 RNase through remodeling of the kinase front pocket by ATP-competitive ligands” (Nature Communications, 2020).

Where two headings read alike, the source gives them in different places.

Assay [1] relates to T1, IRE1 (endogenous, KMS-11).
T1 construct: endogenous full-length in KMS-11 cells
The assay is described as follows: cells. Further details: XBP1s mRNA by branched DNA assay in KMS-11 cell lysates after compound treatment. Particulars: Homo sapiens, KMS-11, 4 h. As to the method: 15-20k KMS-11 cells in RPMI growth media were seeded into 96-well plates and treated with compounds or DMSO control over a period of 4 h the following day. RNA levels of XBP1s and DGAT2 in KMS-11 cell lysates were measured using the QuantiGene 2.0 bDNA assay technology (Thermofisher). See Supplementary Table 4 for sequences of relevant capture probes. Data analysis was carried out against an assay background control with no cell lysate (no-RNA control). In the case of AMG-18, cells were also stimulated with thapsigargin (Tg, 100 nM) 30 min after compound addition. No Tg was used when treating cells with all other compounds. Samples were run in duplicate. To investigate whether this peculiar conformation had any role in the mechanism of activation of G-1749, we evaluated different tails to substitute the ethyl carbamate on the naphthyl moiety (Fig. 3, Supplementary Table 2). […] This is likely due to clashes with residues lining the front pocket, which in turn would force the tails to occupy the back pocket and break the salt bridge, thereby causing RNase inhibition. […] Experiments in KMS-11 cells (Fig. 3b, c, right panels) confirmed the effect of these tail modifications on IRE1 RNase activation. […] The chemical substituents tolerated by the front pocket seem to be very limited: even a minor substitution of the carbamate oxygen atom to a larger [compound left out], from ethyl carbamate to propyl amide (compound 6), or from methyl carbamate to methyl or ethyl amide (compound 4 or 5, respectively), or increasing the tail length by one atom, from ethyl to propyl carbamate (compound 11), is enough to impart a switch from activation to inhibition (Fig. 3b, c). […] RNA cleavage was measured by a kinetic fluorescence assay using an XBP1-like RNA hairpin substrate and IRE1 LKR construct (Q470-L977). Background from the no-protein control was subtracted from signal before calculating fold change. Source data are provided as a Source Data file. Data are presented as the mean for measurements from two independent experiments (n = 2). c RNA levels for IRE1 RNase product XBP1s measured by bDNA assay of lysates from KMS-11 cells treated with compounds for 4 h. Background from the no-RNA control was subtracted from signal before calculating fold change. Source data are provided as a Source Data file. Data are presented as the mean for measurements from two independent experiments (n = 2). d, e Analytical Ultracentrifugation sedimentation velocity (SV-AUC) experiments for (d), IRE1 LKR (Q470-L977) unphosphorylated and autophosphorylated and (e), IRE1 LKR unphosphorylated in the presence of slight excess G-9807 and G-1749. Calculated sedimentation coefficients for IRE1 monomer (3.1 svedbergs) and dimer (4.6 svedbergs) are highlighted by dotted lines. Source data are provided as a Source Data file.

The target of another assay is LTK (Homo sapiens, UniProt P29376). In words: biochemical. Further details: Invitrogen kinase panel: Z'Lyte activity (ATP at Km) or LanthaScreen competitive ATP-site binding, percent inhibition. An excerpt:
(§1) We set out to identify allosteric activators of IRE1 RNase by screening internal compound libraries for binding to the kinase, using a published ATP-competitive TR-FRET assay. We then tested kinase binders to assess RNase modulation in an IRE1-specific kinetic RNA cleavage assay that uses the cytoplasmic construct IRE1-LKR (Q470-L977) (Supplementary Fig. 1a). […] Next, we tested these compounds in KMS-11 multiple myeloma cells, known to express functional IRE1 and strongly depend on the IRE1 pathway due to hyper-production of immunoglobulins in the ER[31]. We measured mRNA levels of XBP1s and the well-established RIDD target DGAT2[22] (Fig. 1c and Supplementary Fig. 1c, respectively) using a branched DNA (bDNA) assay. […] Importantly, neither G-9807 nor G-1749 inhibit PERK (Supplementary Table 1).

A further assay concerns the target STK33 (Homo sapiens, UniProt Q9BYT3). The assay is described as follows: biochemical. Further details: Invitrogen kinase panel: Z'Lyte activity (ATP at Km) or LanthaScreen competitive ATP-site binding, percent inhibition.
Source text: as §1

The next assay has as its target SGK3 (Homo sapiens, UniProt Q96BR1). The assay is described as follows: biochemical. Further details: Invitrogen kinase panel: Z'Lyte activity (ATP at Km) or LanthaScreen competitive ATP-site binding, percent inhibition.
For a further assay, the target named is T2, CK1_alpha1 (Homo sapiens, UniProt P48729).
T2 construct: gene CSNK1A1
The assay is described as follows: biochemical. Further details: Invitrogen kinase panel: Z'Lyte activity (ATP at Km) or LanthaScreen competitive ATP-site binding, percent inhibition.

For the next assay, the target named is T3, GSK3_alpha (Homo sapiens, UniProt P49840).
T3 construct: gene GSK3A
The assay is described as follows: biochemical. Further details: Invitrogen kinase panel: Z'Lyte activity (ATP at Km) or LanthaScreen competitive ATP-site binding, percent inhibition.

Another assay addresses NLK (Homo sapiens, UniProt Q9UBE8). In words: biochemical. Further details: Invitrogen kinase panel: Z'Lyte activity (ATP at Km) or LanthaScreen competitive ATP-site binding, percent inhibition.
For another assay, the target named is SRPK1 (Homo sapiens, UniProt Q96SB4). The assay is described as follows: biochemical. Further details: Invitrogen kinase panel: Z'Lyte activity (ATP at Km) or LanthaScreen competitive ATP-site binding, percent inhibition.
The next assay has as its target T4, MST4 (Homo sapiens, UniProt Q9P289).
T4 construct: gene STK26
The assay is described as follows: biochemical. Further details: Invitrogen kinase panel: Z'Lyte activity (ATP at Km) or LanthaScreen competitive ATP-site binding, percent inhibition.

A further assay has as its target MuSK (Homo sapiens, UniProt O15146). In words: biochemical. Further details: Invitrogen kinase panel: Z'Lyte activity (ATP at Km) or LanthaScreen competitive ATP-site binding, percent inhibition.
Another assay addresses NEK4 (Homo sapiens, UniProt P51957). The assay is described as follows: biochemical. Further details: Invitrogen kinase panel: Z'Lyte activity (ATP at Km) or LanthaScreen competitive ATP-site binding, percent inhibition.
For another assay, the target named is T5, PDK1(direct) (Homo sapiens, UniProt O15530).
T5 construct: gene PDPK1; direct
In words: biochemical. Further details: Invitrogen kinase panel: Z'Lyte activity (ATP at Km) or LanthaScreen competitive ATP-site binding, percent inhibition.

The next assay concerns the target TXK (Homo sapiens, UniProt P42681). The assay is described as follows: biochemical. Further details: Invitrogen kinase panel: Z'Lyte activity (ATP at Km) or LanthaScreen competitive ATP-site binding, percent inhibition.
[2] abbreviates: XBP1s mRNA increase, read-out: EC50 (KMS-11 bDNA assay, XBP1s), activators.

T2 sequence (P48729 whole entry): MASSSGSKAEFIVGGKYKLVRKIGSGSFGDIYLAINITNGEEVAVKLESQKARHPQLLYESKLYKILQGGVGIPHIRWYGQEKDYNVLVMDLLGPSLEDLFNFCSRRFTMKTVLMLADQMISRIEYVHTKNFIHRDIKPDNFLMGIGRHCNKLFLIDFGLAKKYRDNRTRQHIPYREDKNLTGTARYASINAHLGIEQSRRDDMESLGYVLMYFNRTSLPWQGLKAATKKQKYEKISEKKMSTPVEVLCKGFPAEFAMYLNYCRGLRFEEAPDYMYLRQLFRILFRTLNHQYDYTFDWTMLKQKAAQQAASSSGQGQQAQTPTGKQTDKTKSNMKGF
Chain of NLK (Q9UBE8 whole entry): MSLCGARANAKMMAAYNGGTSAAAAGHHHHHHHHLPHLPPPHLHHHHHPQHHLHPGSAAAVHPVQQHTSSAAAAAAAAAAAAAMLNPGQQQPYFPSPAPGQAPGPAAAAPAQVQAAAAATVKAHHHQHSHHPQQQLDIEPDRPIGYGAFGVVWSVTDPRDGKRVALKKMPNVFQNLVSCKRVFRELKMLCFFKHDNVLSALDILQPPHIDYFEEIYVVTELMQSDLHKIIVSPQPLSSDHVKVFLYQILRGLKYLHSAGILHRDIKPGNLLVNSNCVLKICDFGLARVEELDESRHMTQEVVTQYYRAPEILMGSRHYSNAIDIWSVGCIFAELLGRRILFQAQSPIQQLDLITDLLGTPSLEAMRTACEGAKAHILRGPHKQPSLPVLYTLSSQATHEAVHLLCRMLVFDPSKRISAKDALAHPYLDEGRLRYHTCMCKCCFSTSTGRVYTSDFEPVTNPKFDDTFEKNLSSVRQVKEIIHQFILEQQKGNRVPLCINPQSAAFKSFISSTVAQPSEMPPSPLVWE
Chain of STK33 (Q9BYT3 whole entry): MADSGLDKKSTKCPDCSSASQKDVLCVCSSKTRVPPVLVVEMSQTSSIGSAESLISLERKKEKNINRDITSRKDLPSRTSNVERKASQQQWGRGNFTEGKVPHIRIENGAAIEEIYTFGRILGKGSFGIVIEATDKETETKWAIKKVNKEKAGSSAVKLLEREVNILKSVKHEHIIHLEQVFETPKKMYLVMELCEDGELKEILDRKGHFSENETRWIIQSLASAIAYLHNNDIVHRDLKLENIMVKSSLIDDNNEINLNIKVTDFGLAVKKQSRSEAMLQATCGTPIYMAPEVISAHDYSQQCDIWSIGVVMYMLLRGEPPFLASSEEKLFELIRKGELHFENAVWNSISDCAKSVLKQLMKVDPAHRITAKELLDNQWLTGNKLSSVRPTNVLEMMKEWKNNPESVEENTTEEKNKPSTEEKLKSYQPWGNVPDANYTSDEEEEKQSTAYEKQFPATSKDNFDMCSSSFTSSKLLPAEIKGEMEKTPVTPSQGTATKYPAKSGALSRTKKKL
T5 sequence (O15530 whole entry): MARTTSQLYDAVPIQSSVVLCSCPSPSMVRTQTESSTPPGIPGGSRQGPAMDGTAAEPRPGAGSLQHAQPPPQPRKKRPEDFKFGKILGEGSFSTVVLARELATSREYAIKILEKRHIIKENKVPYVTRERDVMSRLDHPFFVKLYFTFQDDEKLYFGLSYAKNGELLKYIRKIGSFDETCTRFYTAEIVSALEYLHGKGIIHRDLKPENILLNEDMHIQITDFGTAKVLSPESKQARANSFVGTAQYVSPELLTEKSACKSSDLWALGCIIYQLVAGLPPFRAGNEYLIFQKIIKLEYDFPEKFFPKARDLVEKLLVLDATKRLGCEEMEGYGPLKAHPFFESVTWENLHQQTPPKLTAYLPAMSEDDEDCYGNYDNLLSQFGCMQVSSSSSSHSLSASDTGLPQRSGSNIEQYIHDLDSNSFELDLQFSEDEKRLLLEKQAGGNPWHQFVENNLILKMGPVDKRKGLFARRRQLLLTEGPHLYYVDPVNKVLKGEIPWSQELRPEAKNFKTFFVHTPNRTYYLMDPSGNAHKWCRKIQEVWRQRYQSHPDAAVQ
Chain of NEK4 (P51957 whole entry): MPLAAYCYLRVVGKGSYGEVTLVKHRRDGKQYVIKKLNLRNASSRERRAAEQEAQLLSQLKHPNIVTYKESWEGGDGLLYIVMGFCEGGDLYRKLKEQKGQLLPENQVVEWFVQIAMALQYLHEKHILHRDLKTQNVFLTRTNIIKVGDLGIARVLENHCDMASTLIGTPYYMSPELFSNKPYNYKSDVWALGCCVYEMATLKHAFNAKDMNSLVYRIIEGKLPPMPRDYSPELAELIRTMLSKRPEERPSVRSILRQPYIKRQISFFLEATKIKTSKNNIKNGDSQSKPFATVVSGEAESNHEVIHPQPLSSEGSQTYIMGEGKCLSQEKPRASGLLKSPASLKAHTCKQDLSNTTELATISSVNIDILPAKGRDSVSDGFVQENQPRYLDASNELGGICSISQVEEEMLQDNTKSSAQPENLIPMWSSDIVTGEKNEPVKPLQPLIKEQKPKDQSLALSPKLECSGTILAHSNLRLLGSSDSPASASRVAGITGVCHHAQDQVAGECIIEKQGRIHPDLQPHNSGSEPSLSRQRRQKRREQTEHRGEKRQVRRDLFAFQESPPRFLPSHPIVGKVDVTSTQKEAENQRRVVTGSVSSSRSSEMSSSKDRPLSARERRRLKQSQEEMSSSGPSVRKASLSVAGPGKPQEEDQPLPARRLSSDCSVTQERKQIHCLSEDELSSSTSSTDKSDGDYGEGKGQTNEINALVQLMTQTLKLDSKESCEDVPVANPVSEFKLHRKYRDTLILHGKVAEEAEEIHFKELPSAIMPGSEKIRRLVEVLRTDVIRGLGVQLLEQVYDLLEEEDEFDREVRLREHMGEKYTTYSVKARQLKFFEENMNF
Chain of LTK (P29376 whole entry): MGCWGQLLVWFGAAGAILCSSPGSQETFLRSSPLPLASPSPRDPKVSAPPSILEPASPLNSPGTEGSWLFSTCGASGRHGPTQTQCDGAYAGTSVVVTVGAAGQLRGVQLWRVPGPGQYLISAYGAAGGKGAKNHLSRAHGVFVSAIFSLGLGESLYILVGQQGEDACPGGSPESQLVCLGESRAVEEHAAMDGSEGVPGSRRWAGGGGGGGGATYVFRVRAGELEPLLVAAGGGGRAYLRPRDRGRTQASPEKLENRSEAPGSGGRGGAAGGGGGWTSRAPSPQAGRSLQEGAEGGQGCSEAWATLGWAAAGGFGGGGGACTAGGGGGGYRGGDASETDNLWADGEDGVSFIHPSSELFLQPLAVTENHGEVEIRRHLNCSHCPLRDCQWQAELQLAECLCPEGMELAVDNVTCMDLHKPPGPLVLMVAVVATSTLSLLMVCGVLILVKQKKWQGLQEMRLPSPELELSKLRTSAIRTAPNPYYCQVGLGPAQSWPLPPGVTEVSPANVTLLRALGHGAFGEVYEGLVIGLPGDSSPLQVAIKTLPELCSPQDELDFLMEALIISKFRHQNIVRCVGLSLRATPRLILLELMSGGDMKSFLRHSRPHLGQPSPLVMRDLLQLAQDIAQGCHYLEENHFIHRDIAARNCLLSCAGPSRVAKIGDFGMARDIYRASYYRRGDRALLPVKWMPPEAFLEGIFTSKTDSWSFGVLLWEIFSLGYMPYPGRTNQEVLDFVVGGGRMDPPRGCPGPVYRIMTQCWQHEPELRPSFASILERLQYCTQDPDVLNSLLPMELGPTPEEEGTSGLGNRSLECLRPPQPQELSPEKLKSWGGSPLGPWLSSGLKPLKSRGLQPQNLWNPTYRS
Chain of SRPK1 (Q96SB4 whole entry): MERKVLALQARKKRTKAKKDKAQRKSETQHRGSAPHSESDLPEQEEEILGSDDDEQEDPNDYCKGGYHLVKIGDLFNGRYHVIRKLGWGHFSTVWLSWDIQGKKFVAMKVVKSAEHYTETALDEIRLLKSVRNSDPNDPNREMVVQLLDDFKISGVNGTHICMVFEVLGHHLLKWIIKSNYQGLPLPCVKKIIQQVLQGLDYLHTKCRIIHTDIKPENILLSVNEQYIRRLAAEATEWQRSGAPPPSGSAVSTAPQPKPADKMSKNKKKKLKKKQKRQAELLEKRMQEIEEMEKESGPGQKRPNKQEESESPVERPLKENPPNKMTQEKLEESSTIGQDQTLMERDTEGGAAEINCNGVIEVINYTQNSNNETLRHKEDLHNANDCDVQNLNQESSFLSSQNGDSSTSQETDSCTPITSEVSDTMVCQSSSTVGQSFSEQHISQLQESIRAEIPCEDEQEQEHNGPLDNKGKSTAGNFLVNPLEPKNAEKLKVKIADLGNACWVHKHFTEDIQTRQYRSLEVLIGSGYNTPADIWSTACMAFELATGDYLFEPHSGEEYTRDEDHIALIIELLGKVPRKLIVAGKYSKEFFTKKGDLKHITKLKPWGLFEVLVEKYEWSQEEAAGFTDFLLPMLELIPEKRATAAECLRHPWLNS
Chain of SGK3 (Q96BR1 whole entry): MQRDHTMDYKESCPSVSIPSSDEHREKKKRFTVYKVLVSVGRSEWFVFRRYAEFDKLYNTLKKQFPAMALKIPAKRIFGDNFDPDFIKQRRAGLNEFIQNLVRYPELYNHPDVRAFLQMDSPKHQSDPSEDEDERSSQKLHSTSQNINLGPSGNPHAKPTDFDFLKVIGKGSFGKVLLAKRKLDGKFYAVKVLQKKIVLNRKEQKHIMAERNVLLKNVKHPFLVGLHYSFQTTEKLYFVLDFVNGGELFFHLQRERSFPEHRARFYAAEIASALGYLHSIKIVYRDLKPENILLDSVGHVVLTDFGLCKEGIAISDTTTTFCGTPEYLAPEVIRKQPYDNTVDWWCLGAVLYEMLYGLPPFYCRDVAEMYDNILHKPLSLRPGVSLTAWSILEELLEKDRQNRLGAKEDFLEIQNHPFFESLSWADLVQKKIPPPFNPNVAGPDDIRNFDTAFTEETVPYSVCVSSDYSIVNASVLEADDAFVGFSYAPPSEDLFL

As to `O=c1cc(-c2n[nH]c3ncc(-c4c(F)cccc4F)cc23)nc(N2CCC(O)CC2)[nH]1` [G-9807], in assay [1] (setting [2]), the half-maximal effective concentration (EC50) (commonly the concentration that produces a half-maximal response) worked out at 1770 ± 691 nM.
In the case of `Cc1ccc2c(NS(=O)(=O)c3ccccc3Cl)cccc2c1Oc1ncccc1-c1ccnc(N[C@H]2CCCNC2)n1` [AMG-18], in assay [1] (100 nM thapsigargin stimulation, XBP1s mRNA decrease, read-out: EC50 (KMS-11 bDNA assay, XBP1s), inhibitors), the EC50 was 193 ± 36 nM.
Consider `CC#CC(=O)Nc1cccc2c(Oc3ncccc3-c3ccnc(N[C@H]4CCCNC4)n3)c(C)ccc12` [G-7658], for which the inhibition (in general, the relative decrease from the control value, in per cent) at 1 µM was -4.5% at LTK; -3.5% at STK33; -2% on SGK3; -0.5% at CK1_alpha1; 10.5% on GSK3_alpha; 19% on NLK. The inhibition at 1 µM was 5% on SRPK1; -3.5% on MST4; 9.5% at MuSK; 5.5% at NEK4; 3.5% on PDK1(direct); 2% on TXK. Further, the 50% effective concentration (EC50) in [1] (setting [2]) amounted to 223 ± 33 nM.
Regarding `CCOC(=O)Nc1cccc2c(Oc3ncccc3-c3ccnc(N[C@H]4CCCNC4)n3)c(C)ccc12` [G-1749], the inhibition at 1 µM was 1% at LTK; -4% on STK33; -5.5% on SGK3; -1.5% on CK1_alpha1; 2.5% at GSK3_alpha; 13% on NLK. For the same compound, the inhibition at 1 µM is 6.5% on SRPK1; -12.5% on MST4; 13.5% at MuSK; 6% on NEK4; 5% at PDK1(direct); 2% on TXK. Besides, the EC50 in assay [1] (setting [2]) turned out to be 1310 ± 168 nM.
